US20090042904A1 (LABORATORIOS DEL DR. ESTEVE S.A., priority 2004, published 2009)

The molecules below were run against T1, 5HT6-human recombinant receptor (Homo sapiens, UniProt P50406) (assay: Binding to serotonin receptor 5-HT6 ([3H]-LSD displacement)). Conditions: membranes of HEK-293 cells expressing the receptor; radioligand [3H]-LSD 2.7 nM; 60 minutes at 37° C.
T1 construct: purchased Receptor Biology; host or cells: HEK-293 cells (membranes)
Method: I) Binding to Serotonin Receptor 5-HT6
Cell membranes of HEK-293 cells expressing the 5HT6-human recombinant receptor were supplied by Receptor Biology. In said membranes the receptor concentration is 2.18 pmol/mg protein and the protein concentration is 9.17 mg/ml. The experimental protocol follows the method of B. L. Roth et al. [B. L. Roth, S. C. Craigo, M. S. Choudhary, A. Uluer, F. J. Monsma, Y. Shen, H. Y. Meltzer, D. R. Sibley: Binding of Typical and Atypical Antipsychotic Agents to 5-Hydroxytryptamine-6 and Hydroxytryptamine-7 Receptors. The Journal of Pharmacology and Experimental Therapeutics, 1994, 268, 1403] with the following slight changes. The respective part of the literature description is hereby incorporated by reference and forms part of the disclosure.
The commercial membrane is diluted (1:40 dilution) with the binding buffer: 50 mM Tris-HCl, 10 mM MgCl2,0.5 mM EDTA (pH 7.4). The radioligand used is [^3H]-LSD at a concentration of 2.7 nM with a final volume of 200 μl. Incubation is initiated by adding 100 μl of membrane suspension, (≈22.9 μg membrane protein), and is prolonged for 60 minutes at a temperature of 37° C. The incubation is ended by fast filtration in a Brandel Cell Harvester through fiber glass filters made by Schleicher & Schuell GF 3362 pretreated with a solution of polyethylenimine at 0.5%. The filters are washed three times with three milliliters of buffer Tris-HCl 50 mM pH 7.4. The filters are transferred to flasks and 5 ml of Ecoscint H liquid scintillation cocktail are added to each flask. The flasks are allowed to reach equilibrium for several hours before counting with a Wallac Winspectral 1414 scintillation counter. Non-specific binding is determined in the presence of 100 μM of serotonin. Tests were made in triplicate. The inhibition constants (Ki, nM) were calculated by non-linear regression analysis using the program EBDA/LIGAND described in Munson and Rodbard, Analytical Biochemistry, 1980, 107, 220, the respective part of which is hereby incorporated by reference and forms part of the disclosure.
The binding of the substituted phenyl-piperazine compounds to the 5-HT6 receptor was determined as described above.

T1 sequence (P50406 whole entry): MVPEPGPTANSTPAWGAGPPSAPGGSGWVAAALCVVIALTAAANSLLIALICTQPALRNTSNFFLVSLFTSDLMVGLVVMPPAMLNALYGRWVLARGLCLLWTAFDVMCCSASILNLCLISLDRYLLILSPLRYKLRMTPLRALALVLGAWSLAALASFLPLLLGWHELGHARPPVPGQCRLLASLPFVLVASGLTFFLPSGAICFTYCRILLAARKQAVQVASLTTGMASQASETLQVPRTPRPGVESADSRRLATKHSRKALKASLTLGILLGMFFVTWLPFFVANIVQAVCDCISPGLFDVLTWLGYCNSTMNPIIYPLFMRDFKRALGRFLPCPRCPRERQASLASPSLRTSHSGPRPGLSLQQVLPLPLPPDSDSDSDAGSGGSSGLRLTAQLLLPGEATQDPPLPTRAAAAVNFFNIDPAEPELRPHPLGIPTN

SMILES | Ki
CN1CCN(c2ccc(OCc3ccccc3)c(NCCc3ccccc3)c2)CC1 [Example 9, [2-Benzyloxy-5-(4-methyl-piperazin-1-yl)-phenyl]-phenethyl-amine] | 1280 nM
CN1CCN(c2ccc(OCc3ccccc3)c(NCc3ccco3)c2)CC1 [Example 10] | 402 nM
COC(=O)c1ccc(N2CCN(C)CC2)cc1NCCc1ccccc1 [Example 6, 4-(4-Methyl-piperazin-1-yl)-2-phenethylamino-benzoic acid methyl ester] | 462 nM
CC(=O)N(Cc1ccccc1)c1ccc(N2CCN(C)CC2)cc1N [Example 23, N-[2-Amino-4-(4-methyl-piperazin-1-yl)-phenyl]-N-benzyl-acetamide] | 164 nM
COc1ccc(N2CCN(C)CC2)cc1NCc1ccccc1 [Example 11, Benzyl-[2-methoxy-5-(4-methyl-piperazin-1-yl)-phenyl]-amine] | 409 nM

Now those with a lower Ki, led by results:

Ki | SMILES
108 nM | CN1CCN(c2ccc(C#N)c(NCc3ccccc3)c2)CC1 [Example 5, 2-Benzylamino-4-(4-methyl-piperazin-1-yl)-benzonitrile]
60.2 nM | CN1CCN(c2ccc(NS(=O)(=O)c3ccccc3)c(NCc3ccccc3)c2)CC1 [Example 24, N-[2-Benzylamino-4-(4-methyl-piperazin-1-yl)-phenyl]-benzenesulfonamide]
